According to the NIST ThermoML archive (doi:10.1016/j.jct.2016.08.031):
Numbers after ± are expanded uncertainties.

Conditions: Liquid, Closed cell (Static) method

| SMILES | vapor or sublimation pressure (303.15 K) | vapor or sublimation pressure (313.15 K) | vapor or sublimation pressure (323.15 K) | vapor or sublimation pressure (333.15 K) | vapor or sublimation pressure (343.15 K) | vapor or sublimation pressure (353.15 K) |
| --- | --- | --- | --- | --- | --- | --- |
| CC(C)C [2-methylpropane] | 404.5 ± 1.2 kPa | 530.9 ± 1.3 kPa | 684.6 ± 1.4 kPa | 869 ± 1.7 kPa | 1087.4 ± 1.9 kPa | 1343.4 ± 2.3 kPa |
| F/C=C\C(F)(F)F [(Z)-1,3,3,3-tetrafluoro-1-propene] | 210.6 ± 1.1 kPa | 290.7 ± 1.1 kPa | 391.8 ± 1.2 kPa | 517.4 ± 1.3 kPa | 671.3 ± 1.4 kPa | 859.2 ± 1.6 kPa |
